# Biological target: T1, Ba/F3 cell EGFR Exon20 ins NPH (Homo sapiens, UniProt P00533, INS773NPH)
# T1 construct: expressed in transfected cells; host or cells: Ba/F3
# Assay: Ba/F3 cell proliferation suppression, EGFR Exon20 ins NPH
# Type: cell-based
# Conditions: GI50 class; Ba/F3 cell line with NPH inserted at Exon20 of EGFR; 72 hours
# Method in brief: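 Cells (3000–5000/well) plated 24 h before compound, 12-point 3-fold dilutions at 0.3 nM to 50 um final; Ba/F3 lines grown with 5 ng/ml IL-3. Viability by CellTiter-Glo luminescence after 72 h, growth ratio vs control, GI50 from curves; triplicate.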
row,SMILES,Ba/F3 (NPH) Activity
1,"C=CC(=O)Nc1cc(Nc2cc(N3OCC[C@@H]3Cc3cccc(F)c3Cl)ncn2)c(OC)cc1N1CCC(N2CCN(C3CC3)CC2)CC1 [compound 1007, N-(5-((6-((S)-3-(2-chloro-3-fluorobenzyl)isoxazolidine-2-yl)pyrimidine-4-yl)amino)-2-(4-(4-cyclopropylpiperazine-1-yl)piperidine-1-yl)-4-methoxyphenyl) acrylamide]",A (GI50 < 50 nM)
2,"C=CC(=O)Nc1cc(Nc2cc(N3OCC[C@@H]3c3cccc(C#N)c3)ncn2)c(OC)cc1N1CCC(N2CCN(C)CC2)CC1 [compound 398, N-(5-((6-((R)-3-(3-cyanophenyl)isoxazolidine-2-yl)pyrimidine-4-yl)amino)-4-methoxy-2-(4-(4-methylpiperazine-1-yl)piperidine-1-yl)phenyl) acrylamide]",A (GI50 < 50 nM)
3,"C=CC(=O)Nc1cc(Nc2cc(N3OCC[C@@H]3c3cc(F)cc(F)c3)ncn2)c(OC)cc1N1CCN(C)C[C@@H]1C [compound 919, N-(5-((6-((R)-3-(3,5-difluorophenyl)isoxazolidine-2-yl)pyrimidine-4-yl)amino)-2-((S)-2,4-dimethylpiperazine-1-yl)-4-methoxyphenyl) acrylamide]",A (GI50 < 50 nM)
4,"C=CC(=O)Nc1cc(Nc2cc(N3OCC[C@@H]3c3cccc(F)c3F)ncn2)c(OC)cc1N1CCC(N2CCN(C)[C@H](C)C2)CC1 [compound 336, N-(5-((6-((R)-3-(2,3-difluorophenyl)isoxazolidine-2-yl)pyrimidine-4-yl)amino)-2-(4-((R)-3,4-dimethylpiperazine-1-yl)piperidine-1-yl)-4-methoxyphenyl) acrylamide]",A (GI50 < 50 nM)
5,"C=CC(=O)Nc1cc(Nc2cc(N3OCC[C@@H]3c3ccc(F)c(F)c3F)ncn2)c(OC)cc1N(C)CCN(C)C [compound 571, N-(2-((2-(dimethylamino)ethyl) (methyl)amino)-4-methoxy-5-((6-((R)-3-(2,3,4-trifluorophenyl)isoxazolidine-2-yl)pyrimidine-4-yl)amino)phenyl) acrylamide]",A (GI50 < 50 nM)
6,"C=CC(=O)Nc1cc(Nc2cc(N3OCC[C@@H]3c3ccc(F)cc3F)ncn2)c(OC)cc1N1C[C@@H]2C[C@H]1CO2 [compound 324, N-(2-((1S,4S)-2-oxa-5-azabicyclo[2.2.1]heptane-5-yl)-5-((6-((R)-3-(2,4-difluorophenyl)isoxazolidine-2-yl)pyrimidine-4-yl)amino)-4-methoxyphenyl) acrylamide]",A (GI50 < 50 nM)
7,"C=CC(=O)Nc1cc(Nc2cc(N3OCC[C@@H]3c3ccc(Cl)c(Cl)c3)ncn2)c(OC)cc1N1CCN(C(C)=O)CC1 [compound 675, N-(2-(4-acetylpiperazine-1-yl)-5-((6-((R)-3-(3,4-dichlorophenyl)isoxazolidine-2-yl)pyrimidine-4-yl)amino)-4-methoxyphenyl) acrylamide]",A (GI50 < 50 nM)
8,"C=CC(=O)Nc1cc(Nc2cc(N3OCC[C@@H]3c3ccc(F)c(Cl)c3)ncn2)c(OC)cc1N1CCC(N2CCO[C@@H](C)C2)CC1 [compound 873, N-(5-((6-((R)-3-(3-chloro-4-fluorophenyl)isoxazolidine-2-yl)pyrimidine-4-yl)amino)-4-methoxy-2-(4-((S)-2-methylmorpholino)piperidine-1-yl)phenyl) acrylamide]",A (GI50 < 50 nM)
9,"C=CC(=O)Nc1cc(Nc2cc(N3OCC[C@@H]3c3ccc(Cl)c(Cl)c3)ncn2)c(OC)cc1N1CCN(C2CCN(C)CC2)CC1 [compound 685, N-(5-((6-((R)-3-(3,4-dichlorophenyl)isoxazolidine-2-yl)pyrimidine-4-yl)amino)-4-methoxy-2-(4-(1-methylpiperidine-4-yl)piperazine-1-yl)phenyl) acrylamide]",A (GI50 < 50 nM)

# Now from value to compound:
row,Ba/F3 (NPH) Activity,SMILES
1,A (GI50 < 50 nM),"C=CC(=O)Nc1cc(Nc2cc(N3OCC[C@@H]3Cc3ccccc3)ncn2)c(OC)cc1N1CCN(C2CCOCC2)CC1 [compound 971, N-(5-((6-((S)-3-benzylisoxazolidine-2-yl)pyrimidine-4-yl)amino)-4-methoxy-2-(4-(tetrahydro-2H-pyran-4-yl)piperazine-1-yl)phenyl) acrylamide]"
2,A (GI50 < 50 nM),"C=CC(=O)Nc1cc(Nc2cc(N3OCC[C@@H]3c3cccc(Cl)c3C)ncn2)c(OC)cc1N1CCC(N2CCN(C)CC2)CC1 [compound 485, N-(5-((6-((R)-3-(3-chloro-2-methylphenyl)isoxazolidine-2-yl)pyrimidine-4-yl)amino)-4-methoxy-2-(4-(4-methylpiperazine-1-yl)piperidine-1-yl)phenyl) acrylamide]"
3,A (GI50 < 50 nM),"C=CC(=O)Nc1cc(Nc2cc(N3OCC[C@@H]3c3c(F)ccc(F)c3F)ncn2)c(OC)cc1N1CCC(N2CCOCC2)CC1 [compound 632, N-(4-methoxy-2-(4-morpholinopiperidine-1-yl)-5-((6-((R)-3-(2,3,6-trifluorophenyl)isoxazolidine-2-yl)pyrimidine-4-yl)amino)phenyl)acrylamide]"
4,A (GI50 < 50 nM),"C=CC(=O)Nc1cc(Nc2cc(N3OCC[C@@H]3c3c(F)ccc(F)c3F)ncn2)c(OC)cc1N1CCC(N2CCN(C3CC3)[C@@H](C)C2)CC1 [Example 167, N-(2-(4-((S)-4-cyclopropyl-3-methylpiperazine-1-yl)piperidine-1-yl)-4-methoxy-5-((6-((R)-3-(2,3,6-trifluorophenyl)isoxazolidine-2-yl)pyrimidine-4-yl)amino)phenyl)acrylamide]"
5,A (GI50 < 50 nM),"C=CC(=O)Nc1cc(Nc2cc(N3OCC[C@@H]3c3cc(F)cc(Cl)c3)ncn2)c(OC)cc1N1CCC(N2C[C@H]3CCN(C)[C@H]3C2)CC1 [compound 539, N-(5-((6-((R)-3-(3-chloro-5-fluorophenyl)isoxazolidine-2-yl)pyrimidine-4-yl)amino)-4-methoxy-2-(4-((3aR,6aR)-1-methylhexahydropyrrolo [3,4-b]pyrrole-5(1H)-yl)piperidine-1-yl)phenyl)acrylamide]"
6,B (50 nM ≤ GI50 < 500 nM),"C=CC(=O)Nc1cc(Nc2cc(N3OCC[C@@H]3c3ccc4ccccc4c3)ncn2)c(OC)cc1N1CCC(N2CCN(C(C)C)CC2)CC1 [compound 550, N-(2-(4-(4-isopropylpiperazine-1-yl)piperidine-1-yl)-4-methoxy-5-((6-((R)-3-(naphthalene-2-yl)isoxazolidine-2-yl)pyrimidine-4-yl)amino)phenyl)acrylamide]"
7,A (GI50 < 50 nM),"C=CC(=O)Nc1cc(Nc2cc(N3OCC[C@@H]3c3ccc(F)c(Cl)c3)ncn2)c(OC)cc1N1CCC(N2CCOCC2)CC1 [compound 720, N-(5-((6-((R)-3-(3-chloro-4-fluorophenyl)isoxazolidine-2-yl)pyrimidine-4-yl)amino)-4-methoxy-2-(4-morpholinopiperidine-1-yl)phenyl)acrylamide]"
8,A (GI50 < 50 nM),"C=CC(=O)Nc1cc(Nc2cc(N3OCC[C@@H]3c3cccc(C)c3F)ncn2)c(OC)cc1N1CCC(N2CCN(C3CC3)CC2)CC1 [Example 140, N-(2-(4-(4-cyclopropylpiperazine-1-yl)piperidine-1-yl)-5-((6-((R)-3-(2-fluoro-3-methylphenyl)isoxazolidine-2-yl)pyrimidine-4-yl)amino)-4-methoxyphenyl) acrylamide]"
9,B (50 nM ≤ GI50 < 500 nM),"C=CC(=O)Nc1cc(Nc2cc(N3OCC[C@@H]3c3ccc(C)nc3)ncn2)c(OC)cc1N1CCN(C2COC2)CC1 [Example 218, N-(4-methoxy-5-((6-((R)-3-(6-methylpyridine-3-yl)isoxazolidine-2-yl)pyrimidine-4-yl)amino)-2-(4-(oxetane-3-yl)piperazine-1-yl)phenyl)acrylamide]"
10,B (50 nM ≤ GI50 < 500 nM),"C=CC(=O)Nc1cc(Nc2cc(N3OCC[C@@H]3c3ccc(Cl)c(Cl)c3F)ncn2)c(OC)cc1N1CCC(N2C[C@@H](C)O[C@@H](C)C2)CC1 [compound 773, N-(5-((6-((R)-3-(3,4-dichloro-2-fluorophenyl)isoxazolidine-2-yl)pyrimidine-4-yl)amino)-2-(4-((2S,6R)-2,6-dimethylmorpholino)piperidine-1-yl)-4-methoxyphenyl) acrylamide]"
11,B (50 nM ≤ GI50 < 500 nM),"C=CC(=O)Nc1cc(Nc2cc(N3OCC[C@@H]3c3cccc(C#N)c3)ncn2)c(OC)cc1N1CCC(N2CC[C@H](N(C)C)C2)CC1 [compound 435, N-(5-((6-((R)-3-(3-cyanophenyl)isoxazolidine-2-yl)pyrimidine-4-yl)amino)-2-(4-((S)-3-(dimethylamino)pyrolidine-1-yl)piperidine-1-yl)-4-methoxyphenyl) acrylamide]"
12,A (GI50 < 50 nM),"C=CC(=O)Nc1cc(Nc2cc(N3OCC[C@@H]3c3ccc(F)cc3F)ncn2)c(OC)cc1N1CCC(N2CCN(C)CC2)CC1 [compound 352, N-(5-((6-((R)-3-(2,4-difluorophenyl)isoxazolidine-2-yl)pyrimidine-4-yl)amino)-4-methoxy-2-(4-(4-methylpiperazine-1-yl)piperidine-1-yl)phenyl) acrylamide]"
13,B (50 nM ≤ GI50 < 500 nM),"C=CC(=O)Nc1cc(Nc2cc(N3OCC[C@H]3c3c(F)ccc(F)c3F)ncn2)c(OC)cc1N1CCC(N2CCN(C3CC3)CC2)CC1 [compound 937, N-(2-(4-(4-cyclopropylpiperazine-1-yl)piperidine-1-yl)-4-methoxy-5-((6-((S)-3-(2,3,6-trifluorophenyl)isoxazolidine-2-yl)pyrimidine-4-yl)amino)phenyl)acrylamide]"
14,A (GI50 < 50 nM),"C=CC(=O)Nc1cc(Nc2cc(N3OCC[C@@H]3c3cccc(Cl)c3)ncn2)c(OC)cc1N1CCN(CC)CC1 [compound 411, N-(5-((6-((R)-3-(3-chlorophenyl)isoxazolidine-2-yl)pyrimidine-4-yl)amino)-2-(4-ethylpiperazine-1-yl)-4-methoxyphenyl) acrylamide]"

# From patent publication US12157730B2, “Heteroaryl derivative, method for producing same, and pharmaceutical composition comprising same as effective component” (VORONOI INC., priority 2019, dated 2024)
